Experimental findings from patent US20210261512A1, “NOVEL COMPOUNDS” (INFLAZOME LIMITED, priority 2018, published 2021) are described below.

Some results are limits rather than exact numbers.

The target in test [1] is T1, NLRP3 (Homo sapiens, UniProt Q96P20). The test can be described thus: Human whole blood IL1β release assay. Particulars: LPS 1 μg/ml, nigericin 10 μM, IL-1β AlphaLisa, 10 μM top dose (Example 2: top dose of 30 μM), read-out: HWB IC50. The format is cell-based. The method, then: For systemic delivery, the ability to inhibit NLRP3 when the compounds are present within the bloodstream is of great importance. For this reason, the NLRP3 inhibitory activity of a number of compounds in human whole blood was investigated in accordance with the following protocol.
T1 sequence (Q96P20 whole entry): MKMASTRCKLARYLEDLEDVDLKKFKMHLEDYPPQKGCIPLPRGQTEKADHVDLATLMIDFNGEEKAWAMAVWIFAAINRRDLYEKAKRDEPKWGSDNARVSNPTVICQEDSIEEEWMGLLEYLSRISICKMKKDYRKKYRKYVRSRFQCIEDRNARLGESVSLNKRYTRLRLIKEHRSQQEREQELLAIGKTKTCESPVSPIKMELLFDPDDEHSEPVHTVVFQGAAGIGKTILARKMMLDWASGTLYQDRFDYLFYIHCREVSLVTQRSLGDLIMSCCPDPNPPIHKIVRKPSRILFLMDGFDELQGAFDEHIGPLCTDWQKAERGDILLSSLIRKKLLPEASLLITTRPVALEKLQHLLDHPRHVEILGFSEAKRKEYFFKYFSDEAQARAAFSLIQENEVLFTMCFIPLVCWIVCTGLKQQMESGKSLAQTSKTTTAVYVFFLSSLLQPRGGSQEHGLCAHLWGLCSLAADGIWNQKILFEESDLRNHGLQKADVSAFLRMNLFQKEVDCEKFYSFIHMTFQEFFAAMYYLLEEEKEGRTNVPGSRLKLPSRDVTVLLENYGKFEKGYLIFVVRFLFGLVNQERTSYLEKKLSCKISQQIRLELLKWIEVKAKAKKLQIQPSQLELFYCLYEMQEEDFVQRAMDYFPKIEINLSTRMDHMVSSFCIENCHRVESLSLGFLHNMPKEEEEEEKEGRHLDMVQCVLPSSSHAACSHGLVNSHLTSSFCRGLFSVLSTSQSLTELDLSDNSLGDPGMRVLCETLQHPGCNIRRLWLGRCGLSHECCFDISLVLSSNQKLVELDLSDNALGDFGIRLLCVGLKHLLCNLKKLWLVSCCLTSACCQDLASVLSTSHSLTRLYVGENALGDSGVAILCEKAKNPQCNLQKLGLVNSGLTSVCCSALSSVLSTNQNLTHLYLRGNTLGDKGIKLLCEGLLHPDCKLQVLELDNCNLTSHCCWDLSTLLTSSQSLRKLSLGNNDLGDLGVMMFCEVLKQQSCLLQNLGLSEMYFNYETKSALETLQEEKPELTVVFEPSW
Human whole blood in sodium-heparin or lithium-heparin tubes was obtained from healthy donors from a volunteer donor panel. • 1. Plate out 80 μl of whole blood containing 1 μg/ml of LPS in 96-well, clear bottom cell culture plate (Corning #3585) • 2. Add 10 μl compound (8 points half-log dilution with 10 μM top dose, unless stated otherwise) or vehicle (DMSO 0.1% FAC) to the appropriate wells • 3. Incubate for 3 hrs at 37° C., 5% CO2 • 4. Add 10 μl nigericin (Sigma #N7143) (10 μM FAC) to all wells • 5. Incubate for 1 hr at 37° C., 5% CO2 • 6. At the end of the incubation period, spin plates at 300×g for 5 mins to pellet cells and remove 20 μl of supernatant and add to 96-well v-bottom plates for IL-1β analysis (note: these plates containing the supernatants can be stored at −80° C. to be analysed at a later date) • 7. IL-1β was measured according to the manufacturer protocol (Perkin Elmer-AlphaLisa IL-1 Kit AL220F-5000) • 8. IC50 data is fitted to a non-linear regression equation (log inhibitor vs response-variable slope 4-parameters)

For test [2], the target named is T1, NLRP3. Kind of test: THP-1 cells pyroptosis assay. It counts as cell-based. More on the design: Seed THP-1 cells (25,000 cells/well) containing 1.0 μg/ml LPS; host or cells: THP-1. Particulars: LPS 1.0 μg/ml, nigericin 5 μM, resazurin readout, 10 μM top dose (Example 2: top dose of 30 μM). In short, it runs like this:
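Pyroptosis induced by 5 μM nigericin (1 h) in LPS-primed (1 μg/ml) THP-1 cells, 25,000/well in serum-free RPMI, after 3 h compound pre-treatment (8 points, 10 μM top unless stated). Surviving cells measured with 100 μM resazurin, Ex 560/Em 590; IC50 via variable-slope 4-parameter regression.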

On to `CN(C)CC1CN(S(=O)(=O)c2nnc(Nc3c4c(cc5c3CCC5)CCC4)[nH]2)C1` [Example 291, 5-((3-((dimethylamino)methyl)azetidin-1-yl)sulfonyl)-N-(1,2,3,5,6,7-hexahydro-s-indacen-4-yl)-4H-1,2,4-triazol-3-amine], for which the IC50 in test [1] was not above 0.5 µM; in test [2], not above 500 nM.
The like results for `CN1CCC(N(C)S(=O)(=O)c2nnc(Nc3c4c(cc5c3CCC5)CCC4)[nH]2)C1` (stereo not shown) [Example 87, 5-((1,2,3,5,6,7-hexahydro-s-indacen-4-yl)amino)-N-methyl-N-(1-methylpyrrolidin-3-yl)-4H-1,2,4-triazole-3-sulfonamide] were, in that order, not above 1 µM and not above 5000 nM.
On the same counts, the results for `COc1cc(-c2ccc3c(c2Nc2nnc(S(=O)(=O)c4ccn(C(C)C)n4)[nH]2)CCC3)ccn1` [Example 34, 5-((1-isopropyl-1H-pyrazol-3-yl)sulfonyl)-N-(5-(2-methoxypyridin-4-yl)-2,3-dihydro-1H-inden-4-yl)-4H-1,2,4-triazol-3-amine] are not above 5 µM and not above 1000 nM.
On the same counts, the results for `CN(C)C1CN(S(=O)(=O)c2nnc(Nc3c4c(cc5c3CCC5)CCC4)[nH]2)C1` [Example 91, 5-((3-(dimethylamino)azetidin-1-yl)sulfonyl)-N-(1,2,3,5,6,7-hexahydro-s-indacen-4-yl)-4H-1,2,4-triazol-3-amine] are not above 5 µM and not above 5000 nM.
Regarding `COc1cc(-c2cc(F)cc(C(C)C)c2Oc2nnc(S(=O)(=O)N3CCC4(CCCN4C)CC3)[nH]2)ccn1` [Example 251, 8-((5-(4-fluoro-2-isopropyl-6-(2-methoxypyridin-4-yl)phenoxy)-4H-1,2,4-triazol-3-yl)sulfonyl)-1-methyl-1,8-diazaspiro[4.5]decane], the IC50 was not above 5 µM in test [1] and not above 500 nM in test [2].
On the same counts, the results for `CN(C)CCCNS(=O)(=O)c1nnc(Nc2c3c(cc4c2CCC4)CCC3)[nH]1` [Example 125, N-(3-(dimethylamino)propyl)-5-((1,2,3,5,6,7-hexahydro-s-indacen-4-yl)amino)-4H-1,2,4-triazole-3-sulfonamide] are not above 5 µM and not above 500 nM.
On the same counts, the results for `CC(C)n1ccc(S(=O)(=O)c2nnc(Nc3c(-c4ccncc4)cc(F)c4c3CCC4)[nH]2)n1` [Example 36, N-(7-fluoro-5-(pyridin-4-yl)-2,3-dihydro-1H-inden-4-yl)-5-((1-isopropyl-1H-pyrazol-3-yl)sulfonyl)-4H-1,2,4-triazol-3-amine] are not above 10 µM and not above 5000 nM.
The like results for `O=S(=O)(NCCCN1CCCC1)c1nnc(Nc2c3c(cc4c2CCC4)CCC3)[nH]1` [Example 126, 5-((1,2,3,5,6,7-hexahydro-s-indacen-4-yl)amino)-N-(3-(pyrrolidin-1-yl)propyl)-4H-1,2,4-triazole-3-sulfonamide] were, in that order, not above 5 µM and not above 1000 nM.
Take `CN(C1CNC1)S(=O)(=O)c1nnc(Nc2c3c(cc4c2CCC4)CCC3)[nH]1` [Example 120, N-(azetidin-3-yl)-5-((1,2,3,5,6,7-hexahydro-s-indacen-4-yl)amino)-N-methyl-4H-1,2,4-triazole-3-sulfonamide]: the results for the half-inhibitory concentration (IC50) in test [1] and in test [2] were not above 5 µM and not above 5000 nM, respectively.
With `CC(C)(O)C1CCN(S(=O)(=O)c2nnc(Nc3c4c(cc5c3CCC5)CCC4)[nH]2)C1` (stereo not shown) [Example 289, 2-(1-((5-((1,2,3,5,6,7-hexahydro-s-indacen-4-yl)amino)-4H-1,2,4-triazol-3-yl)sulfonyl)pyrrolidin-3-yl)propan-2-ol], the IC50 is not above 5 µM in test [1] and not above 1000 nM in test [2].
On the same counts, the results for `CN1CCCNC(=O)C12CCN(S(=O)(=O)c1nnc(Nc3c4c(cc5c3CCC5)CCC4)[nH]1)CC2` [Example 294, 3-((5-((1,2,3,5,6,7-hexahydro-s-indacen-4-yl)amino)-4H-1,2,4-triazol-3-yl)sulfonyl)-7-methyl-3,7,11-triazaspiro[5.6]dodecan-12-one] are not above 5 µM and not above 500 nM.
On the same counts, the results for `CCN(CC)CCN(C)S(=O)(=O)c1nnc(Nc2c3c(cc4c2CCC4)CCC3)[nH]1` [Example 80, N-(2-(diethylamino)ethyl)-3-((1,2,3,5,6,7-hexahydro-s-indacen-4-yl)amino)-N-methyl-1H-1,2,4-triazole-5-sulfonamide] are not above 5 µM and not above 1000 nM.
Consider `CN(C)C[C@H]1CCN(S(=O)(=O)c2nnc(Nc3c4c(cc5c3CCC5)CCC4)[nH]2)C1` [Example 148, (R)-5-((3-((dimethylamino)methyl)pyrrolidin-1-yl)sulfonyl)-N-(1,2,3,5,6,7-hexahydro-s-indacen-4-yl)-4H-1,2,4-triazol-3-amine], for which the IC50 was not above 0.5 µM in test [1] and not above 500 nM in test [2].
The like results for `COC(C)(C)[C@H]1CCN(S(=O)(=O)c2nnc(Nc3c4c(cc5c3CCC5)CCC4)[nH]2)C1` [Example 347, (S)-N-(1,2,3,5,6,7-hexahydro-s-indacen-4-yl)-5-((3-(2-methoxypropan-2-yl)pyrrolidin-1-yl)sulfonyl)-4H-1,2,4-triazol-3-amine] were, in that order, not above 10 µM and not above 1000 nM.
For the molecule `O=S(=O)(c1nnc(Nc2c3c(cc4c2CCC4)CCC3)[nH]1)N1CC2(CCN(CCF)C2)C1` [Example 239, 5-((6-(2-fluoroethyl)-2,6-diazaspiro[3.4]octan-2-yl)sulfonyl)-N-(1,2,3,5,6,7-hexahydro-s-indacen-4-yl)-4H-1,2,4-triazol-3-amine], the IC50 in test [1] is not above 5 µM; in test [2] it was not above 1000 nM.
Regarding `CN(C)C1CCN(S(=O)(=O)c2nnc(Nc3c(-c4ccnc(OC(F)F)c4)ccc4c3CCC4)[nH]2)CC1` [Example 222, 1-((5-((5-(2-(difluoromethoxy)pyridin-4-yl)-2,3-dihydro-1H-inden-4-yl)amino)-4H-1,2,4-triazol-3-yl)sulfonyl)-N,N-dimethylpiperidin-4-amine], the half-maximal inhibitory concentration (IC50) in test [1] was not above 1 µM; in test [2] it was not above 500 nM.
The like results for `CN(C)CC1CCN(S(=O)(=O)c2nnc(Nc3c4c(cc5c3CCC5)CCC4)[nH]2)CC1` [Example 304, 5-((4-((dimethylamino)methyl)piperidin-1-yl)sulfonyl)-N-(1,2,3,5,6,7-hexahydro-s-indacen-4-yl)-4H-1,2,4-triazol-3-amine] were, in that order, not above 1 µM and not above 500 nM.
The like results for `CN(C)C1CCN(S(=O)(=O)c2nnc(Nc3c4c(cc5c3CCC5)CCC4)[nH]2)C1` (stereo not shown) [Example 93, 5-((3-(dimethylamino)pyrrolidin-1-yl)sulfonyl)-N-(1,2,3,5,6,7-hexahydro-s-indacen-4-yl)-4H-1,2,4-triazol-3-amine] were, in that order, not above 5 µM and not above 5000 nM.
For `Cc1cc2c(c(Nc3nnc(S(C)(=O)=O)[nH]3)c1-c1ccnc(OC3CCN(C)CC3)c1)CCC2` [Example 317, N-(6-methyl-5-(2-((1-methylpiperidin-4-yl)oxy)pyridin-4-yl)-2,3-dihydro-1H-inden-4-yl)-5-(methylsulfonyl)-4H-1,2,4-triazol-3-amine], the IC50 was not above 5 µM in test [1] and not above 1000 nM in test [2].
On the same counts, the results for `COc1cc(-c2ccc3c(c2Nc2nnc(S(=O)(=O)N4CCC(N(C)C)CC4)[nH]2)CCC3)ccn1` [Example 228, 1-((5-((5-(2-methoxypyridin-4-yl)-2,3-dihydro-1H-inden-4-yl)amino)-4H-1,2,4-triazol-3-yl)sulfonyl)-N,N-dimethylpiperidin-4-amine] are not above 1 µM and not above 500 nM.
